From PMC10874388, “Cyclic peptides discriminate BCL-2 and its clinical mutants from BCL-XL by engaging a single-residue discrepancy” (Nature Communications, 2024)
Where “and” joins values, the source holds several entries; their conditions need not be identical. Identical values can stand only once.

How the values were obtained:
[1] = target: BCL-2 (chimeric human BCL-2); test: SPR binding assay, BCL-2; conditions: affinity fitting, mean ± SD of three independent experiments, 25 °C
Description: (§1) The DNA fragments encoding human BCL-XL ([…], with […] removed), BCL-w (residues 6–152), MCL-1 (residues 152–308) and BFL-1 (residues 1–151) as previously reported[18] were cloned into a pET-22b vector (Invitrogen), respectively. A chimeric human BCL-2 (including residues 1–50 and 92–207) was constructed, by removing the internal long loop (residues 51–91) and replacing its residues 35–50 with residues 33–48 of BCL-XL to solubilize the protein[14], and then it was cloned into a pET28a-Sumo vector (Invitrogen). All BCL-2 mutants (G101V, F104L, Y103D, D111A) were generated by mutagenic PCR, according to the QuikChange (Stratagene) protocol.
(§2) SPR assays were performed using a Biacore T200 instrument in running buffer consisting 10 mM PBS, 50 μM EDTA and 0.05% Tween-20 at 25 °C. Biotinylated proteins were immobilized on a CAP sensor chip (Cytiva, 28920234). […] The binding affinities were quantified by the Biacore evaluation software using 1:1 binding model. The reproducibility of the assays was confirmed by performing replicate determinations.

BCL-XL = target: T1, BCL-XL (Homo sapiens, UniProt Q07817, DEL27-81); test: SPR binding assay, BCL-XL; conditions: affinity fitting, mean ± SD of three independent experiments, 25 °C
T1 construct: human BCL-XL (residues 1–210, with 27–81 and 210–233 removed); vector-borne tag of pET-22b (Ni-NTA purification implies a His tag); made in house; host or cells: E. coli BL21 (DE3)
T1 sequence (Q07817 with tags, fused parts or gaps DEL27-81): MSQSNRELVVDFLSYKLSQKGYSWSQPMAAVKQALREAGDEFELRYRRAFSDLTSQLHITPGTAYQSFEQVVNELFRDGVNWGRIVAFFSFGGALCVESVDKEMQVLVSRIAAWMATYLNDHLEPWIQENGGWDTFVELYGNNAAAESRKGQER
Description: as §1, §2

BCL-2 G101V = test system: BCL-2 G101V; set-up: method as in PMID 31160589; conditions: SPR assays; cited from earlier work
Jurkat cells [2] = test: Apoptosis assay, Annexin V-FITC/PI staining and flow cytometry; format: cell-based
Procedure: Jurkat cells were seeded to 6-well plates at a density of 4 ×10^5 cells per well. Cells were incubated in the presence of DMSO, venetoclax at 2.5 μM, cp1-TAT at 30 μM, cp2-TAT at 30 μM, or cp3-TAT at 20 μM in serum-free RPMI medium for 4 h. After being incubated totally for 24 h, cells were washed once with PBS and stained with 100 μL binding buffer containing 5 μL Annexin V-FITC and 10 μL PI for 15 min, followed by addition of 400 μL binding buffer to detect cell apoptosis with FCM (BD FACSAria Fusion). Statistical analysis was performed using software FlowJo V10 and GraphPad Prism 7.0.

Jurkat cells [3] = test: Mitochondrial membrane potential (JC-1), flow cytometry and fluorescence microscopy; format: cell-based; conditions: Jurkat
Procedure: For the mitochondrial membrane potential (ΔΨm) analysis, the mitochondrial membrane potential assay kit with JC-1 dye (Beyotime, C2006) was used according to the manufacturer’s protocol. […] The value of ΔΨm was expressed as the ratio of red fluorescence intensity over green fluorescence intensity. After treated with JC-1, fluorescence intensity of Jurkat cells was tested by flow cytometry (BD FACSAria Fusion) and fluorescence microscopy (NIKON Ti-E), respectively. All experiments were performed in triplicate. Statistical analysis was performed using software GraphPad Prism 7.0.

| Kd [1] [nM] | Kd (BCL-XL) [nM] | Structure (SMILES) | Reduction of binding affinity of BCL-2 to venetoclax by G101V (BCL-2 G101V) | cell apoptosis(%) (Jurkat cells [2]; Figure 6b, replicate values) | Proportion of apoptotic cells (Jurkat cells [2]; Jurkat, 24 h, 2.5 μM) [%] | ΔΨm (ratio of red over green fluorescence, Q1/Q3) (Jurkat cells [3]; 4 h treatment, JC-1, flow cytometry, n = 3) | Relative ΔΨm by JC-1 fluorescence staining (microscopy) (Jurkat cells [3]; 24 h treatment (Supplementary Fig. 13)) |
| --- | --- | --- | --- | --- | --- | --- | --- |
| 6 ± 2 | 175 ± 42 | O=C(c1cc(-c2cc3c(cc2C(=O)N2Cc4ccccc4C[C@H]2CN2CCOCC2)OCO3)n2c1CCCC2)N(c1ccccc1)c1ccc(O)cc1 [S55746] |  |  |  |  |  |
|  |  | CC1(C)CCC(CN2CCN(c3ccc(C(=O)NS(=O)(=O)c4ccc(NCC5CCOCC5)c([N+](=O)[O-])c4)c(Oc4cnc5[nH]ccc5c4)c3)CC2)=C(c2ccc(Cl)cc2)C1 [venetoclax] | ~ 180 fold | 94.5% and 85.6% | 94.5 | 0.1 | red fluorescence almost disappeared |
